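Step 1: Grow cells in 96-well plates. Step 2: Expose to compound for 48 hours at 5 concentrations. Step 3: Interpolate endpoints linearly; if unreached, use highest concentration. TGI is the concentration that stops growth completely.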
Experiments:
Assay in all cases: NCI tumour cell line growth inhibition, 48 h
[1] = test system: NCI-H226 lung
[2] = test system: NCI-H522 lung
[3] = test system: SK-OV-3 ovarian
[4] = test system: UO-31 renal
[5] = test system: HOP-62 NSCLC
[6] = test system: COLO 205 colon
[7] = test system: MOLT-4 leukemia
[8] = test system: CCRF-CEM leukemia
[9] = test system: M14 melanoma
[10] = test system: SF-539 CNS
[11] = test system: NCI-H23 lung
[12] = test system: SR leukemia
[13] = test system: DMS 114 small cell lung
[14] = test system: SF-268 CNS
[15] = test system: SNB-78 CNS
[16] = test system: DLD-1 colon
[17] = test system: IGROV1 ovarian
[18] = test system: HOP-92 NSCLC
[19] = test system: DMS 273 small cell lung
[20] = test system: CAKI-1 renal
[21] = test system: SK-MEL-28 melanoma
[22] = test system: RPMI-8226 leukemia
[23] = test system: MALME-3M melanoma
[24] = test system: K-562 leukemia
[25] = test system: M19-MEL melanoma
[26] = test system: OVCAR-4 ovarian
[27] = test system: SNB-75 CNS
[28] = test system: HCT-116 colon
[29] = test system: 786-0 renal
[30] = test system: LXFL 529 NSCLC
[31] = test system: HCC-2998 colon
[32] = test system: SK-MEL-2 melanoma
[33] = test system: UACC-62 melanoma
[34] = test system: HL-60(TB) leukemia
[35] = test system: SN12C renal
[36] = test system: NCI-H460 lung
[37] = test system: ACHN renal
[38] = test system: BT-549 breast
[39] = test system: HS 578T breast
[40] = test system: SF-295 CNS
[41] = test system: MDA-MB-231 breast
[42] = test system: MCF7 breast
[43] = test system: DU-145 prostate
[44] = test system: LOX IMVI melanoma
[45] = test system: OVCAR-5 ovarian
[46] = test system: OVCAR-8 ovarian
[47] = test system: RXF 393 renal
[48] = test system: OVCAR-3 ovarian
[49] = test system: T-47D breast
[50] = test system: SNB-19 CNS
[51] = test system: HCT-15 colon
[52] = test system: UACC-257 melanoma
[53] = test system: HT29 colon
[54] = test system: A549 NSCLC
[55] = test system: TK-10 renal
[56] = test system: U251 CNS
[57] = test system: NCI/ADR-RES ovarian
[58] = test system: KM12 colon
[59] = test system: SK-MEL-5 melanoma
[60] = test system: SW-620 colon
[61] = test system: MDA-N
[62] = test system: EKVX NSCLC
[63] = test system: A498 renal
[64] = test system: MDA-MB-435
[65] = test system: PC-3 prostate

In the case of `Cc1c2cc(Cl)ccc2n2c(=O)c3ccccc3[nH]c(=O)c12`, the TGI [1] is reported as > 100 µM, the TGI [2] is reported as > 100 µM and the TGI [3] is reported as > 100 µM. For the same molecule, the TGI [4] was > 100 µM, the TGI [5] was > 100 µM and the TGI [6] was > 100 µM. The TGI [7] was > 100 µM, the TGI [8] was > 100 µM and the TGI [9] was > 100 µM. The TGI [10] was > 100 µM, the TGI [11] was > 100 µM and the TGI [12] was > 100 µM. For the same molecule, the TGI [13] was > 100 µM, the TGI [14] was > 100 µM and the TGI [15] was > 100 µM. The TGI [16] was > 100 µM, the TGI [17] was > 100 µM and the TGI [18] was > 100 µM. The TGI [19] was > 100 µM, the TGI [20] was > 100 µM and the TGI [21] was > 100 µM. For the same molecule, the TGI [22] was > 100 µM, the TGI [23] was > 100 µM and the TGI [24] was > 100 µM. For the same molecule, the TGI [25] was > 100 µM, the TGI [26] was > 100 µM and the TGI [27] was > 100 µM. The TGI [28] was > 100 µM, the TGI [29] was > 100 µM and the TGI [30] was > 100 µM. The TGI [31] was > 100 µM, the TGI [32] was > 100 µM and the TGI [33] was > 100 µM.
For `CCCNC1CC(n2cc(C)c(=O)[nH]c2=O)OC1CO` (stereo not drawn), the TGI [1] was > 100 µM, the TGI [2] was > 100 µM and the TGI [34] was > 100 µM. The TGI [3] was > 100 µM, the TGI [4] was > 100 µM and the TGI [5] was > 100 µM. For the same molecule, the TGI [6] was > 100 µM, the TGI [7] was > 100 µM and the TGI [8] was > 100 µM. The TGI [9] was > 100 µM, the TGI [10] was > 100 µM and the TGI [11] was > 100 µM. The TGI [12] was > 100 µM, the TGI [13] was > 100 µM and the TGI [14] was > 100 µM. The TGI [35] was > 100 µM, the TGI [15] was > 100 µM and the TGI [16] was > 100 µM. For the same molecule, the TGI [17] was > 100 µM, the TGI [36] was > 100 µM and the TGI [18] was > 100 µM. The TGI [19] was > 100 µM, the TGI [37] was > 100 µM and the TGI [20] was > 100 µM. For the same molecule, the TGI [21] was > 100 µM, the TGI [22] was > 100 µM and the TGI [23] was > 100 µM. For the same molecule, the TGI [24] was > 100 µM, the TGI [25] was > 100 µM and the TGI [26] was > 100 µM. For the same molecule, the TGI [27] was > 100 µM, the TGI [28] was > 100 µM and the TGI [29] was > 100 µM. For the same molecule, the TGI [30] was > 100 µM, the TGI [31] was > 100 µM and the TGI [32] was > 100 µM. For the same molecule, the TGI [33] was > 100 µM.
With `OCC1OC(c2scc3c(=S)nc[nH]c23)C(O)C1O` (stereo not drawn) the TGI [38] was > 100 µM, the TGI [1] was 85.4 µM and the TGI [2] was 82.4 µM. For the same molecule, the TGI [34] was 21.4 µM, the TGI [39] was 6.52 µM and the TGI [3] was 35.4 µM. For the same molecule, the TGI [4] was > 100 µM, the TGI [40] was > 92.8 µM and the TGI [5] was > 100 µM. The TGI [41] was > 69.2 µM, the TGI [6] was 33.5 µM and the TGI [7] was 48.4 µM. For the same molecule, the TGI [42] was 27.3 µM, the TGI [43] was 19.5 µM and the TGI [44] was > 82.5 µM. The TGI [45] was > 100 µM, the TGI [8] was > 100 µM and the TGI [46] was 39.6 µM. The TGI [9] was 60.3 µM, the TGI [47] was > 100 µM and the TGI [10] was 57.6 µM. For the same molecule, the TGI [48] was 8.33 µM, the TGI [49] was 9.53 µM and the TGI [50] was > 100 µM. The TGI [51] was > 95.6 µM, the TGI [11] was 92.6 µM and the TGI [52] was > 46.4 µM. The TGI [12] was > 100 µM, the TGI [53] was 70.1 µM and the TGI [54] was > 100 µM. For the same molecule, the TGI [55] was > 100 µM, the TGI [14] was > 100 µM and the TGI [56] was > 100 µM. For the same molecule, the TGI [35] was > 100 µM, the TGI [57] was > 66.3 µM and the TGI [58] was > 100 µM. The TGI [59] was > 73.6 µM, the TGI [17] was 46.5 µM and the TGI [36] was > 100 µM. The TGI [60] was > 93.1 µM, the TGI [61] was > 100 µM and the TGI [62] was > 100 µM. For the same molecule, the TGI [18] was 6.92 µM, the TGI [63] was > 54.1 µM and the TGI [64] was > 100 µM. For the same molecule, the TGI [65] was > 84.9 µM, the TGI [37] was > 67.8 µM and the TGI [20] was 63.3 µM. For the same molecule, the TGI [21] was > 100 µM, the TGI [22] was 58 µM and the TGI [23] was > 72.9 µM. The TGI [24] was > 100 µM, the TGI [26] was 38.1 µM and the TGI [27] was 30.5 µM. The TGI [28] was > 84.3 µM, the TGI [29] was > 100 µM and the TGI [31] was > 97.2 µM. The TGI [32] was > 65.6 µM and the TGI [33] was 45.6 µM.
For `C=C(C)[C@@H]1CC[C@]2(C(=O)O)CC[C@]3(C)[C@H](CC[C@@H]4[C@@]5(C)CC(=O)C(C)(C)[C@@H]5CC[C@]43C)[C@@H]12`, the TGI [38] was > 25 µM, the TGI [1] was > 25 µM and the TGI [2] was 19.7 µM. The TGI [34] was 1.61 µM, the TGI [39] was > 25 µM and the TGI [3] was > 25 µM. The TGI [4] was 16.4 µM, the TGI [40] was > 25 µM and the TGI [5] was > 25 µM. For the same molecule, the TGI [41] was 14.3 µM, the TGI [6] was 8.71 µM and the TGI [7] was 14.5 µM. The TGI [42] was > 25 µM, the TGI [43] was > 25 µM and the TGI [44] was > 25 µM. The TGI [45] was > 25 µM, the TGI [8] was 2.86 µM and the TGI [46] was > 25 µM. The TGI [9] was > 25 µM, the TGI [47] was > 25 µM and the TGI [10] was 14.7 µM. The TGI [48] was 21.4 µM, the TGI [49] was > 25 µM and the TGI [50] was > 25 µM. The TGI [51] was > 25 µM, the TGI [11] was > 25 µM and the TGI [52] was 22.3 µM. For the same molecule, the TGI [12] was 12.3 µM, the TGI [53] was > 25 µM and the TGI [54] was > 25 µM. The TGI [55] was > 25 µM, the TGI [14] was > 25 µM and the TGI [56] was > 25 µM. The TGI [35] was 13.6 µM, the TGI [57] was > 25 µM and the TGI [58] was > 25 µM. The TGI [59] was 13.3 µM, the TGI [17] was > 25 µM and the TGI [36] was 10.7 µM. For the same molecule, the TGI [60] was > 25 µM, the TGI [61] was > 25 µM and the TGI [62] was > 25 µM. For the same molecule, the TGI [18] was > 25 µM, the TGI [63] was 17.2 µM and the TGI [64] was > 25 µM. The TGI [65] was 19.7 µM, the TGI [37] was > 25 µM and the TGI [20] was > 25 µM. For the same molecule, the TGI [21] was > 25 µM, the TGI [22] was 11.6 µM and the TGI [23] was > 25 µM. The TGI [24] was > 25 µM, the TGI [26] was > 25 µM and the TGI [27] was > 25 µM. For the same molecule, the TGI [28] was 8.83 µM, the TGI [29] was > 25 µM and the TGI [31] was 12 µM. For the same molecule, the TGI [32] was 9.71 µM and the TGI [33] was 6.66 µM.

From PubChem BioAssay (NCI)
